Key:
Format in all cases: cell-based
[1] = biological target: Free fatty acid receptor 1 (Homo sapiens, UniProt O14842); test: Agonist activity at N-terminal FLAG tagged human FFAR1 transfected in African green monkey COS-7 cells assessed as accumulation of inositol phosphate incubated for 90 mins by TopCount NXT counter based analysis
[2] = biological target: T1, Free fatty acid receptor 4 (Homo sapiens, UniProt Q5NUL3); test: Agonist activity at N-terminal FLAG tagged human FFAR4 transfected in African green monkey COS-7 cells assessed as accumulation of inositol phosphate incubated for 90 mins by TopCount NXT counter based analysis
T1 sequence (Q5NUL3 whole entry): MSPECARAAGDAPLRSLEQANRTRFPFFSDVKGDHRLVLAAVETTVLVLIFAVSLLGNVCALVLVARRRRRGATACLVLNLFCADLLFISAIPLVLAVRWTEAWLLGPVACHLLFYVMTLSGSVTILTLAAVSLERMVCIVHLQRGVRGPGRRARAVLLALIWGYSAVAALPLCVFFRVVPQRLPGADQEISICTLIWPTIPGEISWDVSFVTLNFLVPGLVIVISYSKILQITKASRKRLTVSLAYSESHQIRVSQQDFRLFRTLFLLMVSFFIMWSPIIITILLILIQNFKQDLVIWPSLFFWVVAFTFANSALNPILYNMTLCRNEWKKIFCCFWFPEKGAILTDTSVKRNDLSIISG

[3] = biological target: T2, Free fatty acid receptor 4 (Homo sapiens) (UniProt Q5NUL3); test: Agonist activity at N-terminal FLAG tagged human FFAR4 transfected in African green monkey COS-7 cells assessed as accumulation of inositol phosphate at 10 uM incubated for 90 mins by TopCount NXT counter based analysis relative to control
T2 sequence (whole entry): T1 sequence (Q5NUL3 whole entry)

Free fatty acid receptor 1, sequence (O14842 whole entry): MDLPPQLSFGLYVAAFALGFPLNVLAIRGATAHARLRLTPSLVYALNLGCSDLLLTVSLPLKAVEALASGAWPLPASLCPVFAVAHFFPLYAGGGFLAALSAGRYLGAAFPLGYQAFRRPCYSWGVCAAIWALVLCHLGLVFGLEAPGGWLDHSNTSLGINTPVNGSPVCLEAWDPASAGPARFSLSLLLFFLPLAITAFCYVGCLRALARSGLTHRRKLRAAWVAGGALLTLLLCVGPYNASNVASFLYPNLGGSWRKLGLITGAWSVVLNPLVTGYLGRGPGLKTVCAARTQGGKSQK

Row | Compound | EC50 [1] [nM] | EC50 [2] [nM] | Emax ([3]; filed as agonist) [%] | Emax [3] [%]
1 | Cc1cc(=O)oc2cc(OCc3nc(N)nc(Nc4ccc(Cl)c(Cl)c4)n3)ccc12 | 780 | 360 | – | –
2 | Cc1cc(=O)oc2cc(OCc3nc(N)nc(Nc4ccc(C(C)C)cc4)n3)ccc12 | 460 | 1200 | 75 | –
3 | Cc1cc(OCc2nc(N)nc(NCCc3ccc(Cl)cc3Cl)n2)cc(N2CCCC2=O)c1 | 44 | 25 | – | 18
4 | Cc1cc(OCc2nc(N)nc(NCCc3cc(C)ccc3F)n2)cc(N2CCCC2=O)c1 | 3 | 386 | 40 | –
5 | Cc1cc(OCc2nc(N)nc(NCCc3cccc(OC(F)F)c3)n2)cc(N2CCCC2=O)c1 | 5 | 10 | – | 28
6 | Cc1cc(OCc2nc(N)nc(NCCc3ccccc3OC(F)(F)F)n2)cc(N2CCCC2=O)c1 | 20 | 37 | – | 29
7 | COc1cc(OCc2nc(N)nc(Nc3ccc(C)c(Cl)c3)n2)cc(N2CCCC2=O)c1 | 1800 | 600 | 43 | –
8 | Cc1cc(=O)oc2cc(OCc3nc(N)nc(Nc4ccc5c(c4)COC5)n3)ccc12 | 1330 | – | – | –
9 | Cc1ccc(Nc2nc(N)nc(COc3ccc4c(C)cc(=O)oc4c3)n2)cc1C | 210 | – | – | –
10 | Cc1cc(OCc2nc(N)nc(NCCc3ccc(Cl)c(Cl)c3)n2)cc(N2CCCC2=O)c1 | 16 | 55 | – | 23
11 | Cc1ccc(Nc2nc(N)nc(COc3cc(C#N)cc(N4CCCC4=O)c3)n2)cc1Cl | 4170 | 14300 | – | 26
12 | Cc1cc(OCc2nc(N)nc(NCCc3ccccc3C(F)(F)F)n2)cc(N2CCCC2=O)c1 | 12 | 10 | – | 38
13 | Cc1cc(OCc2nc(N)nc(Nc3ccc(C)c(Cl)c3)n2)cc(N2CCCC2=O)c1 | 20 | 600 | 50 | –
14 | Cc1cc(OCc2nc(N)nc(NCCc3cccc(S(F)(F)(F)(F)F)c3)n2)cc(N2CCCC2=O)c1 | 32 | – | 95 | –
15 | Cc1cc(OCc2nc(N)nc(NCCc3ccc(C)c(Cl)c3)n2)cc(N2CCCC2=O)c1 | 7 | 8 | – | 32
16 | Cc1cc(OCc2nc(N)nc(NCC(c3c(F)cccc3F)N(C)C)n2)cc(N2CCCC2=O)c1 (stereo not given) | 7430 | – | – | –
17 | Cc1ccc(Nc2nc(N)nc(COc3ccc(Cl)c(N4CCCC4=O)c3)n2)cc1Cl | 2450 | 3030 | 42 | –
18 | Cc1ccc(Nc2nc(N)nc(COc3cc(N4CCCC4=O)ccc3C(F)(F)F)n2)cc1Cl | 20100 | 11900 | 41 | –
19 | Cc1ccc(Nc2nc(N)nc(COc3cc(N4CCCC4=O)cc(C(F)(F)F)c3)n2)cc1Cl | 3190 | – | – | –
20 | CCCc1cc(=O)oc2cc(OCc3nc(N)nc(Nc4ccc(C)cc4)n3)ccc12 | 2900 | – | – | –
21 | Cc1cc(OCc2nc(N)nc(NCCc3cc(F)ccc3F)n2)cc(N2CCCC2=O)c1 | 16 | 5 | – | 36
22 | Cc1cc(=O)oc2cc(OCc3nc(N)nc(Nc4ccc5ccccc5c4)n3)ccc12 | 700 | – | – | –
23 | Cc1cc(OCc2nc(N)nc(NCC3(c4cccc(Cl)c4)CC3)n2)cc(N2CCCC2=O)c1 | 48 | – | – | –

Row | Compound | EC50 [1] [nM] | EC50 [2] [nM] | Emax ([3]; filed as agonist) [%] | Emax [3] [%]
24 | Cc1cc(=O)oc2cc(OCc3nc(N)nc(Nc4cccc(Cl)c4)n3)ccc12 | 1110 | – | – | –
25 | Cc1cc(OCc2nc(N)nc(NCCc3ccc(Cl)cc3)n2)cc(N2CCCC2=O)c1 | 193 | – | – | –
26 | Cc1ccc(Nc2nc(N)nc(COc3cccc(N4CCCS4(=O)=O)c3)n2)cc1Cl | 9700 | – | – | –
27 | Cc1cc(=O)oc2cc(OCc3nc(N)nc(Nc4ccc(F)cc4)n3)ccc12 | 18300 | – | – | –
28 | Cc1cc(=O)oc2cc(OCc3nc(N)nc(Nc4ccc(Cl)cc4)n3)ccc12 | 32500 | – | – | –
29 | COc1cccc(CCNc2nc(N)nc(COc3cc(C)cc(N4CCCC4=O)c3)n2)c1 | 12 | 14 | 46 | –
30 | Cc1cc(OCc2nc(N)nc(NCCc3cccc(C(F)(F)F)c3)n2)cc(N2CCCC2=O)c1 | 12 | 10 | – | 35
31 | Cc1ccc(Nc2nc(N)nc(COc3cc(N4CCCC4=O)ccc3C)n2)cc1Cl | 7450 | 18200 | 43 | –
32 | Cc1ccc(Nc2nc(N)nc(COc3ccc4c(C(F)F)cc(=O)oc4c3)n2)cc1 | 3180 | 1570 | – | 27
33 | Cc1cc(Nc2nc(N)nc(COc3ccc4c(C)cc(=O)oc4c3)n2)ccc1Cl | 240 | 600 | 48 | –
34 | Cc1cc(OCc2nc(N)nc(NCCc3ccccc3F)n2)cc(N2CCCC2=O)c1 | 11 | – | – | –
35 | Cc1cc(=O)oc2cc(OCc3nc(N)nc(NCc4ccc(F)cc4)n3)ccc12 | 7820 | – | – | –
36 | Cc1cc(OCc2nc(N)nc(NCCc3cccc(C#N)c3)n2)cc(N2CCCC2=O)c1 | 831 | 552 | – | 17
37 | Cc1ccc(Nc2nc(N)nc(COc3cc(N4CCCC4=O)cc(C(C)(C)C)c3)n2)cc1Cl | – | 640 | – | –
38 | Cc1ccc(Nc2nc(N)nc(COc3cc(Cl)cc(N4CCCC4=O)c3)n2)cc1Cl | 160 | 150 | 43 | –
39 | Cc1cc(OCc2nc(N)nc(NCCc3cccc(Cl)c3Cl)n2)cc(N2CCCC2=O)c1 | 3 | 9 | – | 31
40 | Cc1cc(OCc2nc(N)nc(NCCc3ccc(C)cc3C)n2)cc(N2CCCC2=O)c1 | 71 | 93 | – | 37
41 | Cc1cc(OCc2nc(N)nc(NCCc3ccccc3Cl)n2)cc(N2CCCC2=O)c1 | 6 | 3 | – | 33
42 | Cc1cc(OCc2nc(N)nc(NCCc3c(F)cccc3F)n2)cc(N2CCCC2=O)c1 | 3 | 9 | 46 | –
43 | Cc1ccc(Nc2nc(N)nc(COc3ccc4c(C)cc(=O)oc4c3)n2)cc1 | 1790 | 1210 | – | 39
44 | Cc1c(Cl)cc(Nc2nc(N)nc(COc3ccc4c(C)cc(=O)oc4c3)n2)cc1Cl | 600 | 1270 | 68 | –
45 | Cc1cc(OCc2nc(N)nc(NCCc3ccc(Cl)c(C)c3)n2)cc(N2CCCC2=O)c1 | 14 | 4 | – | 30
46 | Cc1cc(OCc2nc(N)nc(NCCc3ccccc3OC(F)F)n2)cc(N2CCCC2=O)c1 | 108 | 178 | – | 30

Row | Compound | EC50 [1] [nM] | EC50 [2] [nM] | Emax ([3]; filed as agonist) [%] | Emax [3] [%]
47 | Cc1cc(=O)oc2cc(OCc3nc(N)nc(Nc4ccc(C5CC5)cc4)n3)ccc12 | 700 | – | – | –
48 | Cc1cccc(CCNc2nc(N)nc(COc3cc(C)cc(N4CCCC4=O)c3)n2)c1 | 7 | – | – | –
49 | Cc1ccc(Nc2nc(N)nc(COc3ccc4ccc(=O)oc4c3)n2)cc1 | 1280 | 4390 | 49 | –
50 | COc1ccc(F)cc1CCNc1nc(N)nc(COc2cc(C)cc(N3CCCC3=O)c2)n1 | 469 | 134 | – | 30
51 | Cc1cc(OCc2nc(N)nc(NCCc3ccccc3C)n2)cc(N2CCCC2=O)c1 | 11 | 17 | – | 35
52 | Cc1ccc(Nc2nc(N)nc(COc3cc(N4CCCC4=O)ccc3F)n2)cc1Cl | 33100 | 13800 | – | 27
53 | Cc1cc(OCc2nc(N)nc(NCCc3ccccc3)n2)cc(N2CCCC2=O)c1 | 25 | 33 | – | 38
54 | Cc1cc(OCc2nc(N)nc(NCCc3c(C)cccc3C)n2)cc(N2CCCC2=O)c1 | 25 | 72 | 44 | –
55 | COc1ccc(CCNc2nc(N)nc(COc3cc(C)cc(N4CCCC4=O)c3)n2)cc1 | 1460 | 377 | – | 34
56 | Cc1ccc(Nc2nc(N)nc(COc3cccc(N4CCCC4=O)c3C)n2)cc1Cl | 11100 | 14400 | 46 | –
57 | Cc1ccc(Nc2nc(N)nc(COc3cc(F)cc(N4CCCC4=O)c3)n2)cc1Cl | 1800 | 1200 | 47 | –
58 | Cc1ccc(Nc2nc(N)nc(COc3cccc(N4CCCC4=O)c3F)n2)cc1Cl | 14100 | – | – | –
59 | Cc1ccc(Nc2nc(N)nc(COc3ccc4c5c(c(=O)oc4c3)CCC5)n2)cc1 | 2220 | – | – | –
60 | Cc1ccc(Nc2nc(N)nc(COc3cccc(N4CCCCC4=O)c3)n2)cc1Cl | 22400 | 16600 | 66 | –
61 | COc1ccccc1CCNc1nc(N)nc(COc2cc(C)cc(N3CCCC3=O)c2)n1 | 34 | 14 | – | 23
62 | COc1ccc(Cl)cc1CCNc1nc(N)nc(COc2cc(C)cc(N3CCCC3=O)c2)n1 | 54 | 53 | – | 29
63 | CCc1cc(=O)oc2cc(OCc3nc(N)nc(Nc4ccc(C)cc4)n3)ccc12 | 2640 | 1320 | – | 37
64 | Cc1cc(OCc2nc(N)nc(NCCc3cc(Cl)cc(Cl)c3)n2)cc(N2CCCC2=O)c1 | 4 | 7 | 49 | –
65 | CCc1ccc(Nc2nc(N)nc(COc3ccc4c(C)cc(=O)oc4c3)n2)cc1Cl | 160 | 560 | 48 | –
66 | COc1ccc(OCc2nc(N)nc(Nc3ccc(C)c(Cl)c3)n2)cc1N1CCCC1=O | 20200 | 31400 | 53 | –
67 | Cc1ccc(Nc2nc(N)nc(COc3cc(OC(F)(F)F)cc(N4CCCC4=O)c3)n2)cc1Cl | – | 2190 | – | 38
